Measurements as given in patent US12507721B2, “Ready-to-use parenteral nutrition formulation” (BAXTER INTERNATIONAL INC., priority 2021, dated 2025).

Assay: Stability of vitamin B12 during sterilization at different C0
Assay type: physicochemical
Conditions: Batch 3 (5% lipid emulsion); C0=120 min
Method: Therefore, in a first step, exemplary glucose solutions and lipid emulsions each containing vitamin B12 were submitted to different amounts of C0 during the sterilization step to analyze the impact of C0 on the stability of vitamin B12. Several C0 values were targeted and a wide range, from 20 min to 120 min, was screened to understand the correlation between C0 and the degradation of vitamin B12 in different media. Bags of lipid emulsion were produced, wherein the 5% olive-based emulsion contained vitamin B12 (cyanocobalamin form) at a concentration of 1 dd in 25 mL and, in one case, EDTA in a concentration of 0.1% w/v of the final emulsion (see Table 6). […] The heat sensitivity of the vitamin was assessed through the analysis of the respective degradation profile. […]
The solutions were analyzed unsterilized and sterilized for each cycle. […]
Bags were then analyzed at the respective points in time to evaluate the impact on the degradation of vitamin B12. The quantitative determination of vitamin B12 in the form of cyano- and hydroxocobalamins was done by Ultra Performance Liquid Chromatography (UPLC), which separates components of a solution by partitioning of the analytes between a mobile liquid phase and a […] (reversed phase mode). […]

degradation of the total sum of vitamin B12: about 35%
Substance: cobalamin [Batch B12]
